This is an account of results in US7973079B2, “Methods and compounds for treating retinol-related diseases” (Revision Therapeutics, Inc., priority 2007, dated 2011).

Structures are written as SMILES. pIC50: −log10 of the molar value.

What is called inhibition is the relative decrease from the control value, in per cent. Read a low inhibition as a weak effect.

In one data set the target is RBP4-TTR interaction (Homo sapiens, UniProt P02753). In words: High throughput in vitro assay detecting inhibition of RBP-TTR interaction. In kind it is binding. The following applies: Table 1, read-out: Apparent 50 IC. The protocol: In some embodiments, the modulators disclosed herein are also used in in vitro assays for detecting perturbations in RBP or TTR activity. For example, the modulator is added to a sample comprising RBP, TTR and retinol to detect complex disruption. A component, for example, RBP, TTR, retinol or the modulator, is labeled to determine if disruption of complex formation occurs. For example, complex formation and subsequent disruption is detected and/or measured through conventional means, such as the sandwich assays disclosed above. Other detection systems are also used to detect modulation of RBP or TTR binding, for example, FRET detection of RBP-TTR-retinol complex formation.
The optimal dose of compounds of Formula (I) or (II) to block formation of A2E in abca4-1 mice is determined using a standard dose escalation study. In order to determine the range of doses which will be employed, a high throughput, in vitro assay which detects modulators that inhibit RBP-TTR interaction has been developed. […] An illustrative in vivo approach, utilizing a compound having the structure of Formula (I) or (II) is presented below.

Data set [1] has as its system panel of six cytochrome P450 isozymes. As to the kind of experiment: Cytochrome P450 inhibition profile (panel of six isozymes). In kind it is in vitro ADME.
A further data set concerns RBP4+/+, ABCA4−/− mice. As to the kind of experiment: Serum retinol in HPR-treated mice compared with genetic reduction of RBP4. Conditions: HPR for a 28-day period, ABCA4+/− mice (>50% reduction). It is filed as in vivo. The source says:
FIG. 6. Genetic modulation of RBP4 in abca4 mutant mice: effects on serum retinol, RBP4 and toxic retinal fluorophores. A line of mice which expresses heterozygous mutations in RBP4 and ABCA4 (RBP4+/−, ABCA4+/−) was generated in order to determine if genetic reduction of RBP4 would be sufficient to reduce serum levels of retinol, RBP4 and toxic retinal fluorophores within the RPE. Serum retinol concentrations in RBP4+/−, ABCA4+/− mice were reduced by greater than 50% compared to mice with the normal complement of RBP (RBP4+/+, ABCA4−/−). […] Reductions in serum retinol correlated directly with reductions in RBP4, as determined by immunoblot analysis. Western blot identification of RBP4 in the various mouse lines is shown in panel B. Histological analysis were also performed. Tissue sections from RBP4+/+, ABCA4+/− mice (panel C), RBP4+/−, ABCA4+/− (panel D) and RBP4+/+, ABCA4+/+ (panel E) were analyzed by fluorescence microscopy.
Exploration of a non-pharmacological means of reducing lipofuscin fluorophores in order to validate our therapeutic approach based upon reduction of RBP levels in a patient will be performed. In this study, RBP protein levels will be reduced through genetic manipulation. Two new lines of mice expressing heterozygous mutations in retinol binding protein (RBP4) are generated. […]

Consider `CC(C)(C)c1cc(Cl)ccc1OCCCCC(=O)O` [5-(2-tert-Butyl-4-chlorophenoxy)pentanoic Acid], for which the pIC50 at RBP4-TTR interaction is 7.00. In addition, the inhibition at 2 μM in data set [1] was not above 10%. `CC(C)(C)c1cc(Cl)ccc1OCC1CCC(C(=O)Nc2ccc(C(=O)O)cc2)C1` (centres unmarked) [4-(3-((2-tert-butyl-4-chlorophenoxy)methyl)cyclopentanamido)benzoic acid] gave an inhibition at 2 μM in data set [1] of less than 10%.

For `CC(C)(C)c1cc(Cl)ccc1OCCCCC(=O)Nc1ccc(C(=O)O)cc1` [4-(5-(2-tert-Butyl-4-chlorophenoxy)pentanamido)benzoic acid], in data set [1], the inhibition at 2 μM was less than 10%. `CC(C)(C)c1cc(Cl)ccc1OCCCCC(=O)Nc1ccc(CC(=O)O)cc1` [2-(4-(5-(2-tert-butyl-4-chlorophenoxy)pentanamido)phenyl)acetic acid]: the pIC50 at RBP4-TTR interaction was 6.00. Also, the inhibition at 2 μM in data set [1] is less than 10%. For `CC(C)(C)c1cc(Cl)ccc1OCCCCCCC(=O)O` [7-(2-tert-butyl-4-chlorophenoxy)heptanoic acid], on RBP4-TTR interaction, the pIC50 was 6.30. Further, the inhibition at 2 μM in data set [1] was approximately 15%. As to `CC(C)(C)c1cc(Cl)ccc1OCCCCC(=O)Nc1ccc(O)cc1` [5-(2-tert-Butyl-4-chlorophenoxy)-N-(4-hydroxyphenyl)pentanamide], the pIC50 on RBP4-TTR interaction was 6.00. The same compound showed an inhibition at 2 μM in data set [1] of approximately 50%. With `CC(C)(C)c1cc(Cl)ccc1OCC1CCC(C(=O)O)C1` (centres unmarked) [3-((2-tert-butyl-4-chlorophenoxy)methyl)cyclopentanecarboxylic acid], the pIC50 at RBP4-TTR interaction is 6.40. Moreover, the inhibition at 2 μM in data set [1] was less than 10%. `CC(C)(C)c1cc(Cl)ccc1OCC1CCC(C(=O)Nc2ccc(O)cc2)C1` (centres unmarked) [3-((2-tert-butyl-4-chlorophenoxy)methyl)-N-(4-hydroxyphenyl)cyclopentanecarboxamide] came in with an inhibition at 2 μM in data set [1] of less than 10%.

As for `CC(C)(C)c1cc(Cl)ccc1OCCCC(=O)O` [4-(2-tert-butyl-4-chlorophenoxy)butanoic acid], at RBP4-TTR interaction, the pIC50 was 6.00. In addition, the inhibition at 2 μM in data set [1] is approximately 15%. In the same order, the values of `CC(C)(C)c1cc(Cl)ccc1OCC1CCCC(C(=O)O)C1` (centres unmarked) [3-((2-tert-butyl-4-chlorophenoxy)methyl)cyclohexanecarboxylic acid] are 6.80 and less than 10%. Turning to `CC(C)(C)c1cc(Cl)ccc1OCCCCCCC(=O)Nc1ccc(O)cc1` [7-(2-tert-butyl-4-chlorophenoxy)-N-(4-hydroxyphenyl)heptanamide], the pIC50 at RBP4-TTR interaction was 6.00. In data set [1], this compound yielded an inhibition at 2 μM of approximately 40%. Take `CC1=C(/C=C/C(C)=C/C=C/C(C)=C/C(=O)Nc2ccc(O)cc2)C(C)(C)CCC1` [HPR, fenretinide]: in the data set with RBP4+/+, ABCA4−/− mice, the “degree of serum retinol reduction” value is recorded as “comparable”.
